Experimental findings from patent US11491147B2, “Combination drug therapy reduces PARP-1 related DNA repair and increases the efficacy of genotoxic agents” (Indiana University Research and Technology Corporation, priority 2016, dated 2022) are described below.

Each structure is given as a SMILES string.

For one test, the target named is T1, TE activity of FASN (Homo sapiens, UniProt P49327).
T1 construct: TE activity assay was performed also as previously described using recombinant TE (Fako et al., 2015)
In words: TE activity assay using recombinant TE. The test is classed as biochemical.

A further test deals with M/FASN cells. Briefly: MTT survival assay, M/FASN cells. The test is classed as cell-based, human. Here is the method: (§1) FIG. 5. PARP-1 mediates FASN-associated DNA repair and genotoxic treatment resistance. A-B, Effect of FASN on PARP-1 expression as determined by Western blot (A) and real-time RT-PCR (B) in stable FASN-over-expressing and -knockdown cells. C, Effect of FASN on IR-induced histone-H3 PARylation. Cells were pre-treated without or with 0.5 μM olaparib followed by treatment with or without IR and harvested at different times following IR for lysate preparation, immunoprecipitation of histone-H3 in the presence of 100 μM PARG inhibitor, gallotannin, and Western blot analyses of PARylated and total histone H3. D, Effect of PARP-1 knockdown on FASN-induced NHEJ up-regulation. FASN-over-expressing (P/FASN) and the control (P/Vec) cells were transiently transected with PARP-1 or scrambled control siRNA followed by Western blot analysis of PARP-1 (left panel) and NHEJ activity assay (right panel) (n=3, *p<0.05; **p<0.01). E, Effect of PARP-1 inhibition on survival. M/FASN cells were treated with 1 mM 3-ABA, 0.5 μM olaparib, or their vehicle control for 48 hours followed by MTT assay. F, Effect of PARP-1 inhibition on doxorubicin resistance. M/FASN cells were pre-treated for 6 hours by 1 mM 3-ABA, 0.5 μM olaparib, or transfected with control or PARP-1 siRNA followed by tested doxorubicin resistance using MTT survival assay. (n=3-4, *p<0.05, **p<0.01).
To determine if FASN enhancement of PARP-1 likely mediates FASN function in cellular resistance to DNA damages, a survival assay of […] cells following doxorubicin treatment in the absence or presence of PARP-1 inhibitors, 3-ABA (3-aminobenzamide) or olaparib was carried out. Now referring to FIG. 5E, either 1 mM 3-ABA or 0.5 μM olaparib alone had no effect on M/FASN cell survival.
MTT survival assay was performed as previously described (see e.g., Yang Y, Chen Q, & Zhang J T (2002) Structural and functional consequences of mutating cysteine residues in the amino terminus of human multidrug resistance-associated protein 1. J. Biol. Chem. 277(46):44268-44277). Briefly, cells in 96-well plate were cultured for 24 hours and treated with various concentrations of doxorubicin, bleomycin, cisplatin or H2O2 continuously for 3 days followed by addition of thiazolyl blue tetrazolium bromide (MTT) to a final concentration of 0.5 mg/mL and incubation at 37° C. for 4 hours. Medium was then removed and formazan was solubilized in dimethyl sulfoxide and the OD570 was measured by a Synergy H1 hybrid reader (BioTek, Winooski, Vt.). IC50's were obtained from the fitted curves generated by GraphPad Prism 5.0 program (GraphPad Software, Inc.). Relative resistance factor (RRF) is calculated using the formula RRF=IC50 (test)/IC50 (control) with control normalized as 1. […]
(Formazan colour is commonly taken as a measure of viable cells.)

A further test concerns PARylated histone-H3. In words: IR-induced histone-H3 PARylation, immunoprecipitation and Western blot. The test is classed as cell-based, human. The following applies: pre-treatment with 0.5 μM olaparib, 5 Gy IR, P/FASN and P/Vec cells. The procedure:
as §1, with “*p<0.05, **p<0.01). […]” for “*p<0.05, **p<0.01).”
In general terms: In western blotting, separated proteins are transferred to a membrane and probed.

For the next test, the system named is MCF7 cells. Briefly: Colony formation survival assay, MCF7 cells. It is filed as cell-based, human. Conditions: Homo sapiens; single agent, MCF7 cells, colony formation; read-out: IC50, cell survival. The procedure: FIG. 15. […] B. Combination index. Combination index (CI) was derived using the data shown in A and the formula: […]
For each potency ratio, combination index of three effective concentrations at IC30, IC50, and IC70 were calculated for synergistic effects using Prism 7.0.
Cells were then harvested and re-plated in 6-well plates at a density of 200 cells/well followed by IR treatment at different doses and colony formation assay or collection of cells for Western blot analysis. Concentration-response curves and IC50 values were calculated using Prism 7.0 (GraphPad, La Jolla, USA).

T1 sequence (P49327 2207-2511 limits assumed): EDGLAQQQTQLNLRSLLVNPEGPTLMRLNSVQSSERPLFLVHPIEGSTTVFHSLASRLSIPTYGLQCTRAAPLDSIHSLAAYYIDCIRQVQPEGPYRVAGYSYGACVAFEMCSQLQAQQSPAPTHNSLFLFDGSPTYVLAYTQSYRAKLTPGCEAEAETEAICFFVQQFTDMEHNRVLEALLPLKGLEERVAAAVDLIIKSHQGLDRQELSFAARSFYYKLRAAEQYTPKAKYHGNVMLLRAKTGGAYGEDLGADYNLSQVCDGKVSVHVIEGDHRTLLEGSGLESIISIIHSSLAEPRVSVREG

`Cc1c(OCC(F)(F)F)ccnc1C[S@@+]([O-])c1nc2ccccc2[nH]1` [R-lansoprazole]: at TE activity of FASN, the “inhibition of TE (Ki), R- versus S-enantiomer” value is recorded as “significantly more effective than the S-lansoprazole”.

As to `O=C(c1cc(Cc2n[nH]c(=O)c3ccccc23)ccc1F)N1CCN(C(=O)C2CC2)CC1` [olaparib], the “effect on M/FASN cell survival” value in the test on M/FASN cells (1 mM 3-ABA or 0.5 μM olaparib alone, 48 hours) is recorded as “no effect”. The “doxorubicin resistance level of M/FASN cells” value in the test with M/FASN cells (pre-treated for 6 hours by 1 mM 3-ABA or 0.5 μM olaparib) is reported as “significantly reduced”. Further, the “IR-induced PARylation of histone-H3” value in the test on PARylated histone-H3 was “inhibited IR-induced PARylation”. Also, the half-inhibitory concentration (IC50) with MCF7 cells worked out at 1 µM.

For orientation: IC50 means the concentration at which inhibition is half-maximal.
